The test system of one assay is tubulin. Description: In vitro tubulin polymerization (fluorescence). Conditions: relative to 0.05% DMSO control. It is filed as biochemical. From the text:
To obtain further support for the proposed antitubulin mechanism of action for our heterocycles, we assessed the effect of pyranoquinolones on in vitro tubulin polymerization. In this assay microtubule formation is monitored by the increase in fluorescence intensity of the reaction mixture.
FIG. 4 illustrates the effect of our compounds on in vitro tubulin polymerization.

The test system of assay [1] is Jurkat cells. Description: DNA laddering assay. The settings on record: 36 h, 1.5% agarose gel. It is filed as cell-based, human. The procedure: Since endonuclease-mediated cleavage of nuclear DNA resulting in formation of oligonucleosomal DNA fragments (180-200 base pairs long) is a hallmark of apoptosis in many cell types, apoptosis was further investigated with the DNA laddering assay (FIG. 2). Jurkat cells were treated with DMSO (lane A), analogues 40 and 41 (lanes B and C), and paclitaxel (lane D) for 36 h. After that the cellular DNA was isolated and electrophoresed in a 1.5% agarose gel. […] No laddering was observed when the cells were treated with DMSO control.
FIG. 2 illustrates DNA laddering in Jurkat cells after 36 h of treatment. (A) DMSO control, (B) 40 at 1.5 μM, (C) 41 at 1.5 μM, (D) paclitaxel at 0.4 μM, and (E) Molecular weight marker (KB).

For assay [2], the system named is Jurkat cells. Description: Flow cytometric cell cycle analysis (Vybrant Orange staining). It is filed as cell-based, human. The settings on record: for cell cycle arrest: Jurkat cell line, flow cytometric cell cycle analysis; for % relative DNA content G0/G1 / % relative DNA content G2/M / % relative DNA content S: Jurkat, 1 μM, 24 h, ± SD. From the text: Our libraries of compounds exert their antiproliferative properties through inhibition of tubulin dynamics, thereby inducing mitotic arrest and initiating apoptosis in cancer cells. […] This effect is characteristic of antimitotic agents disrupting microtubule assembly.

For the next assay, the system named is HeLa. Put plainly: MTT cell viability assay, HeLa cells. It is filed as cell-based. Conditions: Homo sapiens, 48 h treatment, ± SD, two experiments, 8 replicates.
Another assay has as its system MCF-7. Description: MTT cell viability assay, MCF-7 cells. In kind it is cell-based. Conditions: Homo sapiens, MCF7, 48 h treatment, ± SD, two experiments, 8 replicates.
Assay [3] concerns Jurkat cells. Description: Light microscopy of morphological changes. In kind it is cell-based, human. The settings on record: 1 μM, 2 h. The procedure: Morphological changes of cells treated with potent analogues can be visually observed with light microscopy (FIG. 3).
FIG. 3 illustrates light microscopy pictures. Treatment of Jurkat cells with 40 (C) and 41 (D) for 2 hours induces formation of finger-like extensions (black arrows) and shriveling (white arrows). 0.1% DMSO (A) and a known anticancer agent (B) were used as controls. All compounds are used at 1 μM. The scale bar indicates 40 μm.

Turning to `COc1cc(C2C(C#N)=C(N)Oc3c2c(=O)n(C)c2ccccc32)cc(Br)c1O` (centres unmarked) [Compound 40, 2-Amino-4-(3-bromo-4-hydroxy-5-methoxyphenyl)-6-methyl-5-oxo-5,6-dihydro-4H-pyrano[3,2-c]quinoline-3-carbonitrile], the “effect on in vitro tubulin polymerization” value (“effect” below) in the assay with tubulin (25 μM) is reported as “completely suppress tubulin polymerization”. The “DNA laddering in Jurkat cells” value in the assay with Jurkat cells [1] (1.5 μM) was “characteristic ladder pattern was obtained”. Besides, in the assay on Jurkat cells [2], the cell cycle arrest result is “pronounced cell cycle arrest in the G2/M phase”, the “% relative DNA content G0/G1” value is given as 27 ± 3%, the “% relative DNA content G2/M” value is 47 ± 3% and the “% relative DNA content S” value is recorded as 22 ± 2%. In the assay with HeLa, this compound had a GI50 of 47 ± 10 nM. Besides, in the assay on MCF-7, the concentration for 50% growth inhibition (GI50) is 390 ± 160 nM. Besides, in the assay with Jurkat cells [3], the “morphological (phenotypic) changes of Jurkat cells” value was “formation of finger-like extensions and shriveling”.
As for `COc1cc(C2C(C#N)=C(N)Oc3c2c(=O)n(C)c2ccccc32)cc(Br)c1OC` (centres unmarked) [Compound 41, 2-Amino-4-(3-bromo-4,5-dimethoxyphenyl)-6-methyl-5-oxo-5,6-dihydro-4H-pyrano[3,2-c]quinoline-3-carbonitrile], the “effect” value with tubulin (25 μM) is listed as “completely suppress tubulin polymerization”. For the same compound, in the assay with Jurkat cells [1] (1.5 μM), the “DNA laddering in Jurkat cells” value is on record as “characteristic ladder pattern was obtained”. For the same compound, in the assay on Jurkat cells [2], the cell cycle arrest result is “pronounced cell cycle arrest in the G2/M phase”, the “% relative DNA content G0/G1” value is listed as 20 ± 2%, the “% relative DNA content G2/M” value is listed as 49 ± 2% and the “% relative DNA content S” value is given as 28 ± 2%. The 50% growth inhibitory concentration (GI50) with HeLa came out at 14 ± 3 nM. In the assay on MCF-7, this compound gave a GI50 of 380 ± 30 nM. In addition, the “morphological (phenotypic) changes of Jurkat cells” value with Jurkat cells [3] was “formation of finger-like extensions and shriveling”.
In the case of `CC(=O)O[C@H]1C(=O)[C@@]2(C)[C@H]([C@H](OC(=O)c3ccccc3)[C@]3(O)C[C@H](OC(=O)[C@H](O)[C@@H](NC(=O)c4ccccc4)c4ccccc4)C(C)=C1C3(C)C)[C@]1(OC(C)=O)CO[C@@H]1C[C@@H]2O` [paclitaxel, reference compound], the “effect” value in the assay with tubulin (3 μM) is “promotes microtubule formation”. The “DNA laddering in Jurkat cells” value in the assay with Jurkat cells [1] (0.4 μM) is listed as “characteristic ladder pattern was obtained”.

For the origin of these results see US8349864B2, “Pyrano [3,2-C] pyridones and related heterocyclic compounds as pharmaceutical agents for treating disorders responsive to apoptosis, antiproliferation or vascular disruption, and the use thereof” (New Mexico Technical Research Foundation, priority 2009, dated 2013).
